Data published in publication PMC6269060, “4-(1H-Pyrazol-1-yl) Benzenesulfonamide Derivatives: Identifying New Active Antileishmanial Structures for Use against a Neglected Disease” (Molecules, 2012).

Tests used:
[1] = system: Leishmania infantum (L. chagasi syn.) promastigotes; assay: In vitro antileishmanial drug assay, L. infantum promastigotes; format: cell-based, Leishmania infantum (syn. chagasi) MCAN/BR/97/P142 strain; conditions: for S.I (selectivity index: CC50 drug/IC50 drug), Leishmania infantum: CC50 on murine peritoneal cells / IC50 on L. infantum promastigotes; for IC50: Leishmania infantum, promastigotes, 24 h, 26 °C, mean ± S.D. of three determinations
Method: (§1) Parasites in metacyclic phase (4 × 10^6 parasites/mL) were incubated with the derivatives (40–160 mg/mL) solubilized in dimethyl sulphoxide (DMSO, Sigma Chemical Co., St. Louis, MO, USA) at 26 °C for 24 h. The results were expressed as IC50/24 h, the concentration of a compound that caused a 50% reduction in survival/viability compared with non-treated culture. Pentamidine was used as reference drug and all tests were carried out in triplicate. Promastigotes of L. amazonensis (MHOM/BR/77/LTB0016 strain) and L. infantum (syn. chagasi) (MCAN/BR/97/P142 strain) were grown in Schneider’s insect medium (Sigma) at 26 °C in pH 7.2 supplemented with 10–20% (v/v) heat-inactivated fetal calf serum.

[2] = system: Leishmania amazonensis promastigotes; assay: In vitro antileishmanial drug assay, L. amazonensis promastigotes; format: cell-based, Leishmania amazonensis MHOM/BR/77/LTB0016 strain; conditions: for S.I (selectivity index: CC50 drug/IC50 drug), Leishmania amazonensis: CC50 on murine peritoneal cells / IC50 on L. amazonensis promastigotes; for IC50: Leishmania amazonensis, promastigotes, 24 h, 26 °C, mean ± S.D. of three determinations
Method: as §1

[3] = In vitro cytotoxicity (MTT); format: cell-based, BALB/c mice; conditions: BALB/c, mouse, murine peritoneal adherent cells
Method: The BALB/c mice from Laboratory Animals Nucleus (UFF) were sacrificed to obtain peritoneal cells and for both infection and isolation of Leishmania. The protocol assays was approved by the Institutional Committee of the Center for Biological Evaluation and Care of Research Animals (CEUA-UFF).
BALB/c mice peritoneal cavity cells (4 × 10^5cells/well) were incubated with the derivatives (10, 20, 40 and 80 µg/mL) in 96 wells plate for 24 h in […] RPMI 1640 medium, supplemented with 1 mmol·L^−1L-glutamine, […], penicillin G (10^5 IU·L^−1) and streptomycin sulfate (0.10 g·L^−1) at 37 °C in a humidified 5% CO2 atmosphere. After that, 3-[4,5-dimethylthiazol-2-yl]-2,5-diphenyltetrazolium bromide, MTT (Sigma) was added and the reaction was interrupted with DMSO after 2 h. The results were determined in 540 nm by using a MicroQuant spectrophotometer (Biotek-Instrument Inc., Winooski, VT, USA). All assays were repeated at least four times in quadruplicate. The cytotoxicity profile was expressed as CC50/24 h, the concentration of a compound that caused cytotoxicity compared to non-treated cultures. Index of selectivity (IS) was defined as the ratio of the CC50 value on the macrophage to the IC50 value on the L. amazonensis or L. infantum strains (promastigotes).

| IC50 [1] [µM] | IC50 [2] [µM] | SMILES | S.I (selectivity index: CC50 drug/IC50 drug), Leishmania infantum [1] | S.I (selectivity index: CC50 drug/IC50 drug), Leishmania amazonensis [2] | CC50 at 24 h [3] [µM] |
| --- | --- | --- | --- | --- | --- |
| 228 ± 190 | 228 ± 330 | Cc1nn(-c2ccc(S(N)(=O)=O)cc2)c(Cl)c1Br [Compound 3a, 4-(4-Bromo-5-chloro-3-methyl-1H-pyrazol-1-yl)benzenesulfonamide] | 0.78 | 0.78 | – |
| 59 ± 10 | 70 ± 20 | Cc1nn(-c2ccc(S(=O)(=O)Nc3ccccc3)cc2)c(Cl)c1Br [Compound 3b, 4-(4-Bromo-5-chloro-3-methyl-1H-pyrazol-1-yl)-N-phenylbenzenesulfonamide] | 2.44 | 2.05 | 144 |
| 123 ± 50 | 318 ± 590 | Cc1ccc(NS(=O)(=O)c2ccc(-n3nc(C)c(Br)c3Cl)cc2)cc1 [Compound 3c, 4-(4-Bromo-5-chloro-3-methyl-1H-pyrazol-1-yl)-N-(4methylphenyl)benzenesulfonamide] | 1.33 | 0.51 | – |
| 99 ± 80 | 75 ± 10 | Cc1nn(-c2ccc(S(=O)(=O)Nc3ccc(Br)cc3)cc2)c(Cl)c1Br [Compound 3d, 4-(4-Bromo-5-chloro-3-methyl-1H-pyrazol-1-yl)-N-(4-bromophenyl)benzenesulfonamide] | 0.49 | 0.65 | – |
| 65 ± 40 | 72 ± 50 | Cc1nn(-c2ccc(S(=O)(=O)Nc3ccc(Cl)cc3)cc2)c(Cl)c1Br [Compound 3e, 4-(4-Bromo-5-chloro-3-methyl-1H-pyrazol-1-yl)-N-(4-chlorophenyl)benzenesulfonamide] | 1.78 | 1.61 | 116 |
| 138 ± 110 | 153 ± 220 | Cc1cc(Cl)n(-c2ccc(NS(=O)(=O)c3ccccc3)cc2)n1 [Compound 3f, N-[4-(5-Chloro-3-methyl-1H-pyrazol-1-yl)phenyl]benzenesulfonamide] | 0.76 | 0.68 | – |
| 149 ± 120 | 136 ± 54 | Cc1ccc(S(=O)(=O)Nc2ccc(-n3nc(C)cc3Cl)cc2)cc1 [Compound 3g, N-[4-(5-Chloro-3-methyl-1H-pyrazol-1-yl)phenyl]-4-methylbenzenesulfonamide] | 1.21 | 1.33 | – |
| 62 | 21 | N=C(N)c1ccc(OCCCCCOc2ccc(C(=N)N)cc2)cc1 [Pentamidine, reference compound] | – | – | 54 |
